These are literature values, as cited in paper PMC6344135, “Analgesic effects of the cathepsin K inhibitor L-006235 in the monosodium iodoacetate model of osteoarthritis pain” (Pain Reports, 2018).

Molecules are shown by their SMILES.

The test system of data set [1] is MIA model of OA pain. As to conditions: preventative and reversal.
In data set [2] the test system is surgical model of OA. As to conditions: pain not analysed.
The test system of data set [3] is rabbit ACLT and dog partial medial meniscectomy models. Set-up: method as in PMID 29523155. The settings on record: once daily for 7 weeks (rabbit), 28 days (dog).

Turning to `O=P(O)(O)C(O)(Cn1ccnc1)P(=O)(O)O` [zoledronate], the “pain behaviour in MIA rats” value in data set [1] is “Significant preventative, and reversal, effects”.

Regarding `NCCCC(O)(P(=O)(O)O)P(=O)(O)O` [alendronate], in data set [2], the “bone resorption and cartilage” value is “inhibited bone resorption and had chondroprotective effects”.

Regarding `C#C[C@@H]1CN(C(=O)[C@H](CC(C)C)NC(=O)c2ccc(-c3nc(N4CCN(C)CC4)sc3F)cc2)[C@@H]2C(=O)CO[C@H]12` [MIV-711], in data set [3], the joint pathology entry was “prophylactic and therapeutic effects”.
